Test results reported in PubChem BioAssay (NCI).
“And” between values parts separate entries of the source, which are not always exact repeats. Equal entries are not always repeated.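 How tested: cells in 96-well plates exposed to compound for 48 hours at five concentrations. GI50 is the concentration that inhibits growth by half. At the TGI there is no net growth.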

Assays:
Assay in all cases: inhibition of tumour cell growth, NCI panel, 48 h
[1] = test system: COLO 205 colon
[2] = test system: HT29 colon
[3] = test system: KM12 colon
[4] = test system: NCI-H522 lung
[5] = test system: SF-268 CNS
[6] = test system: SK-MEL-2 melanoma
[7] = test system: SNB-19 CNS
[8] = test system: SW-620 colon
[9] = test system: U251 CNS
[10] = test system: UACC-62 melanoma

Row | SMILES | GI50 [1] | TGI [1] | GI50 [2] | TGI [2] | GI50 [3] | TGI [3] | GI50 [4] | TGI [4] | GI50 [5] | TGI [5] | GI50 [6] | TGI [6] | GI50 [7] | TGI [7] | GI50 [8] | TGI [8] | GI50 [9] | TGI [9] | GI50 [10] | TGI [10]
1 | COc1ccc(/C=C/C=C(/C#N)C(N)=S)cc1 | 20.9 µM | 50.7 µM | 26 µM | > 100 µM | 21.3 µM | 89.4 µM | 26.1 µM | 58.3 µM | 28 µM | > 100 µM | 25.2 µM | 67.7 µM | 26.2 µM | > 100 µM | 21.3 µM | 61.2 µM | 28.5 µM | > 100 µM | 19.3 µM | 37.9 µM
2 | O=c1cc(-c2cccc(F)c2)[nH]c2cc3c(cc12)OCO3 | – | 0.364 µM | 0.69 µM and 0.172 µM | 3.23 µM and 0.705 µM | 0.332 µM | – | 0.172 µM | 0.406 µM and 0.112 µM | 0.658 µM | 75 µM and > 58.1 µM | 0.23 µM | 2.9 µM and 23.6 µM | 0.324 µM | 75 µM and > 45.3 µM | – | > 100 µM | 0.268 µM | 9.58 µM and 49.1 µM | – | > 64.9 µM
3 | O=c1[nH]c2ccccc2cc1C(Cl)=C(Cl)Cl | – | > 100 µM | – | > 100 µM | – | > 100 µM | – | > 100 µM | – | > 100 µM | – | > 100 µM | – | > 100 µM | – | > 100 µM | – | > 100 µM | – | > 100 µM
4 | CC(C)(C)OC(=O)n1cc(CNC(=S)Nc2ccccc2)c2ccccc21 | 11.3 µM | 23.4 µM | 22.3 µM | > 100 µM | 5.34 µM | 18.4 µM | > 100 µM | > 100 µM | 11.4 µM | 33.1 µM | 36.3 µM | > 100 µM | 15.3 µM | 61.7 µM | 13.1 µM | 26.2 µM | 4.18 µM | 16 µM | 13.3 µM | 26.1 µM
5 | CN=C(N)N/N=C(\c1ccccc1)c1ccc(Br)cc1 | 0.279 µM | 1.04 µM | 0.322 µM | 1.72 µM | 0.334 µM | 4.4 µM | 0.21 µM | 0.616 µM | 0.685 µM | 11.8 µM | 0.359 µM | 1.97 µM | 0.6 µM | 13.9 µM | 0.417 µM | 16.3 µM | 0.375 µM | 2.63 µM | 0.859 µM | 9.16 µM
6 | COc1cc2c(c3c1C=CCO3)C(=O)c1ccccc1C2=O | – | 39.8 µM | – | > 100 µM | – | > 100 µM | – | > 100 µM | – | > 100 µM | – | > 100 µM | – | > 100 µM | – | 97.9 µM | – | > 100 µM | – | > 100 µM
7 | Cc1cc2c(cc1C)[n+](=O)c(C(=O)C/C(=N/NC(=O)c1ccccc1O)C(=O)Nc1ccccc1C(C)C)c(C)n2[O-] | – | > 100 µM | – | > 100 µM | – | > 100 µM | – | > 100 µM | – | > 100 µM | – | > 100 µM | – | > 100 µM | – | > 100 µM | – | > 100 µM | – | > 100 µM
8 | NC(CO)Cc1cnc[nH]1 (stereo not drawn) | > 100 µM | > 100 µM | > 100 µM | > 100 µM | > 100 µM | > 100 µM | – | > 100 µM | > 100 µM | > 100 µM | > 100 µM | > 100 µM | > 100 µM | > 100 µM | > 100 µM | > 100 µM | > 100 µM | > 100 µM | > 100 µM | > 100 µM
9 | COC(=O)C(=O)CC(=O)CCn1ncc(Cl)c(Cl)c1=O | – | 31.8 µM | – | 15 µM | – | > 74.5 µM | – | 7.35 µM | – | 21.4 µM | – | 32.5 µM | – | 32.5 µM | – | 13.3 µM | – | 22 µM | – | 25.8 µM
10 | C[C@@H]1CC[C@@H]2[C@@H]1[C@H](OC(=O)/C=C/c1ccccc1)[C@]1(c3ccccc3)C[C@@H](OC(=O)CO)[C@@]2(C)O1 | 16.1 µM | 32.7 µM | 15.9 µM | 37.8 µM | 15.2 µM | 38.1 µM | 13.2 µM | 30 µM | 10.4 µM | 37.7 µM | 19.6 µM | 38.3 µM | 20.2 µM | 55.9 µM | 19.1 µM | 42.6 µM | 14.2 µM | 29.3 µM | 14.5 µM | 33.3 µM
11 | O=C(Nc1nc2ccccc2s1)OCC(F)(F)F | > 100 µM | > 100 µM | > 100 µM | > 100 µM | > 100 µM | > 100 µM | > 100 µM | > 100 µM | > 100 µM | > 100 µM | > 100 µM | > 100 µM | > 100 µM | > 100 µM | > 100 µM | > 100 µM | > 100 µM | > 100 µM | > 100 µM | > 100 µM
12 | CC(=O)OCC1OC(O[C@@H]2C[C@H]3C(C)(C)[C@H](OC(C)=O)CC[C@]3(C)[C@H]3CCC4=C([C@@H](C)C[C@@H](O)[C@H](O)C(C)(C)O)CC[C@@]4(C)[C@@]32C)C(O)C(O)C1O (stereo partly drawn) | 16 µM | 30.2 µM | 16.6 µM | 30.2 µM | 22.6 µM | 37.1 µM | 13.2 µM | 27.2 µM | – | 27.7 µM | 16.3 µM | 30.3 µM | 14.3 µM | 27.7 µM | 16.8 µM | 30.7 µM | – | 28 µM | 12.6 µM | 25.1 µM
13 | Cc1ccc2c(C(C[N+](=O)[O-])c3cccs3)c(-c3ccccc3)[nH]c2c1 (stereo not drawn) | 2.46 µM | 12.6 µM | 1.3 µM | 6.54 µM | 1.54 µM | 7.25 µM | 1.23 µM | 8.03 µM | 2.77 µM | 11.5 µM | 2.24 µM | 10.5 µM | 1.72 µM | 7.05 µM | 1.39 µM | 8.12 µM | 1.72 µM | 7.59 µM | 1.4 µM | 5.58 µM
14 | C#CCNC(=O)NC(CCCNC(=O)OCc1ccccc1)C(=O)OCc1ccccc1 (stereo not drawn) | – | > 100 µM | – | > 100 µM | – | > 100 µM | – | 62.7 µM | – | > 100 µM | – | > 100 µM | – | > 100 µM | – | > 100 µM | – | > 100 µM | – | > 100 µM
15 | Cc1nn(-c2ccc(F)cc2)c2ncnc(Nc3ccc(NC(=O)Nc4ccc(Cl)c(C(F)(F)F)c4)cc3)c12 | 1.87 µM | 3.95 µM | 2.76 µM | 9.82 µM | 2.66 µM | 10.9 µM | 1.74 µM | 4.42 µM | 3.55 µM | 21.8 µM | 2.37 µM | 5.66 µM | 2.93 µM | 10.2 µM | 2.93 µM | 10.8 µM | 1.49 µM | 3.62 µM | 2.65 µM | 11.3 µM
16 | N#CC1(c2nc3ccccc3o2)C(=O)C(=O)N(C2C3CC4CC(C3)CC2C4)C(=O)C1=O (stereo not drawn) | – | > 100 µM | – | > 100 µM | – | > 100 µM | – | > 100 µM | – | > 100 µM | – | > 100 µM | – | > 100 µM | – | > 100 µM | – | > 100 µM | – | > 100 µM
17 | COc1ccc(C(=O)Nc2ncc(Cc3ccc(Cl)cc3)s2)cc1 | 0.0533 µM | 2.29 µM | 0.0396 µM | > 100 µM | 0.0373 µM | > 37.1 µM | 0.0573 µM | > 37.8 µM | 0.3 µM | > 100 µM | 0.532 µM | > 100 µM | 0.0897 µM | > 100 µM | 0.0455 µM | > 100 µM | 0.0691 µM | > 100 µM | 0.0475 µM | > 100 µM
18 | O=C(c1cccs1)c1c(C(F)(F)F)n([O-])c2ccccc2[n+]1=O | 1.66 µM | 9.89 µM | 1.08 µM | 4.13 µM | 1.12 µM | 3.07 µM | 0.125 µM | 1.54 µM | 0.395 µM | 1.16 µM | 2.21 µM | 10.5 µM | 5.67 µM | 13.2 µM | 1.01 µM | 5.94 µM | 1.07 µM | 2.79 µM | 0.743 µM | 1.6 µM
19 | CSC1=NC=CCN1C | – | > 100 µM | – | > 100 µM | – | > 100 µM | – | > 100 µM | – | > 100 µM | – | > 100 µM | – | > 100 µM | – | > 100 µM | – | > 100 µM | – | > 100 µM
20 | CCn1c(-c2nonc2N)nc2c(C#CCN)ncc(OCCCN)c21 | > 25 µM | > 25 µM | > 25 µM | > 25 µM | > 25 µM | > 25 µM | > 25 µM | > 25 µM | > 25 µM | > 25 µM | > 25 µM | > 25 µM | > 25 µM | > 25 µM | > 25 µM | > 25 µM | > 25 µM | > 25 µM | > 25 µM | > 25 µM
21 | COC1O[C@H]2CCN(C(=O)OCc3ccccc3)[C@H]2[C@H]1OCc1ccccc1 (stereo partly drawn) | – | > 100 µM | – | > 100 µM | – | > 100 µM | – | > 100 µM | – | > 100 µM | – | > 100 µM | – | > 100 µM | – | > 100 µM | – | > 100 µM | – | 64.4 µM
